Laboratory results published in patent US11053204B2, “Pyrimidinyloxy benzene derivatives as herbicides” (FMC Corporation, priority 2015, dated 2021).

Legend:
Assay in all cases: Test C postemergence, plant response rating
Format in all cases: in vivo
[1] = system: morningglory (Ipomoea coccinea)
Excerpt: (§1) Seeds of plant species selected from blackgrass (Alopecurus myosuroides), ryegrass, Italian (Italian ryegrass, Lolium multiflorum), wheat (winter wheat, Triticum aestivum), galium (catchweed bedstraw, Galium aparine), corn (Zea mays), crabgrass, large (large crabgrass, Digitaria sanguinalis), foxtail, giant (giant foxtail, Setaria faberii), johnsongrass (Sorghum halepense), lambsquarters (Chenopodium album), morningglory (Ipomoea coccinea), nutsedge, yellow (yellow nutsedge, Cyperus esculentus), pigweed (Amaranthus retroflexus), ragweed (common ragweed, Ambrosia elatior), soybean (Glycine max), barnyardgrass (Echinochloa crus-galli), oilseed rape (Brassica napus), pigweed, palmer (palmer pigweed, Amaranthus palmeri), waterhemp (common waterhemp, Amaranthus rudis), velvetleaf (Abutilon theophrasti), kochia (Kochia scoparia), surinam grass (Brachiaria decumbens), nightshade (eastern black nightshade, Solanum ptycanthum), wild poinsettia (Euphorbia heterophylla), windgrass (Apera spica-venti), and oat, wild (wild oat Avena fatua), were planted into a blend of loam soil and sand or a silt loam soil and treated preemergence with test chemicals formulated in a non-phytotoxic solvent mixture which included a surfactant.
(§2) At the same time, plants selected from these crop and weed species and also chickweed (common chickweed, Stellaria media), buckwheat, wild (wild buckwheat, Polygonum convolvulus), wild mustard (Sinapis arvensis), field poppy (Papaver rhoeas), field violet (Viola arvensis), geranium, cutleaf (cutleaf geranium, Geranium dissectum), Canada thistle (Cirsium arvense), and speedwell (bird's-eye speedwell, Veronica persica), were planted in pots containing Sunshine Redi-Earth® planting medium comprising spaghnum peat moss, vermiculite, starter nutrients and dolomitic limestone and treated with postemergence applications of test chemicals formulated in the same manner. Plants ranged in height from 2 to 18 cm (1- to 4-leaf stage) for postemergence treatments. Treated plants and controls were maintained in a greenhouse for 13 to 15 d, after which time all species were compared to controls and visually evaluated. Plant response ratings, summarized in Table C, are based on a scale of 0 to 100 where 0 is no effect and 100 is complete control. A dash (-) response means no test result.

[2] = system: wheat (winter wheat, Triticum aestivum)
Excerpt: as §1, §2

[3] = system: barnyardgrass (Echinochloa crus-galli)
Excerpt: as §1, §2

[4] = system: foxtail, giant (giant foxtail, Setaria faberii)
Excerpt: as §1, §2

[5] = system: oilseed rape (Brassica napus)
Excerpt: as §1, §2

[6] = system: velvetleaf (Abutilon theophrasti)
Excerpt: as §1, §2

[7] = system: blackgrass (Alopecurus myosuroides)
Excerpt: as §1, §2

[8] = 62 g ai/ha, scale 0 to 100 (0 no effect, 100 complete control)
[9] = 125 g ai/ha, scale 0 to 100 (0 no effect, 100 complete control)

Compound: N#CCCOC(=O)c1c(Br)cccc1Oc1ncc(Cl)cn1 [Compound 7]
- Plant response rating, Morningglory ([1]; 16 g ai/ha, scale 0 to 100): 5
- Plant response rating, Morningglory ([1]; 31 g ai/ha, scale 0 to 100): 25
- Morningglory plant response rating [1, 8]: 40
- Morningglory plant response rating [1, 9]: 55
- Plant response rating, Wheat ([2]; 16 g ai/ha, scale 0 to 100): 0
- Plant response rating, Wheat ([2]; 31 g ai/ha, scale 0 to 100): 0
- Wheat plant response rating [2, 8]: 5
- Wheat plant response rating [2, 9]: 5
- Plant response rating, Barnyardgrass ([3]; 16 g ai/ha, scale 0 to 100): 5
- Plant response rating, Barnyardgrass ([3]; 31 g ai/ha, scale 0 to 100): 5
- Barnyardgrass plant response rating [3, 8]: 15
- Barnyardgrass plant response rating [3, 9]: 10
- Plant response rating, Foxtail, Giant ([4]; 16 g ai/ha, scale 0 to 100): 5
- Plant response rating, Foxtail, Giant ([4]; 31 g ai/ha, scale 0 to 100): 5
- Foxtail, Giant plant response rating [4, 8]: 10
- Foxtail, Giant plant response rating [4, 9]: 15
- Plant response rating, Oilseed Rape ([5]; 16 g ai/ha, scale 0 to 100): 0
- Plant response rating, Oilseed Rape ([5]; 31 g ai/ha, scale 0 to 100): 0
- Oilseed Rape plant response rating [5, 8]: 0
- Oilseed Rape plant response rating [5, 9]: 5
- Plant response rating, Velvetleaf ([6]; 16 g ai/ha, scale 0 to 100): 5
- Plant response rating, Velvetleaf ([6]; 31 g ai/ha, scale 0 to 100): 20
- Velvetleaf plant response rating [6, 8]: 35
- Velvetleaf plant response rating [6, 9]: 40
- Plant response rating, Blackgrass ([7]; 16 g ai/ha, scale 0 to 100): 0
- Plant response rating, Blackgrass ([7]; 31 g ai/ha, scale 0 to 100): 0
- Blackgrass plant response rating [7, 8]: 0
- Blackgrass plant response rating [7, 9]: 5

Compound: C=CCOC(=O)c1c(Br)cccc1Oc1ncc(Cl)cn1 [Compound 22, 2-propen-1-yl 2-bromo-6-[(5-chloro-2-pyrimidinyl)oxy]benzoate]
- pest or weed control at 16 g/ha ([1]; Ipomoea, post-emergence, 16 g ai/ha, scale 0 to 100): 5%
- pest or weed control at 31 g/ha ([1]; Ipomoea, post-emergence, 31 g ai/ha, scale 0 to 100): 10%
- pest or weed control at 62 g/ha ([1]; Ipomoea, post-emergence, 62 g ai/ha, scale 0 to 100 (0 no effect, 100 complete control)): 35%
- pest or weed control at 125 g/ha ([1]; Ipomoea, post-emergence, 125 g ai/ha, scale 0 to 100 (0 no effect, 100 complete control)): 50%
- plant injury at 16 g/ha ([2]; Triticum aestivum, post-emergence, 16 g ai/ha, scale 0 to 100): 0%
- plant injury at 31 g/ha ([2]; Triticum aestivum, post-emergence, 31 g ai/ha, scale 0 to 100): 0%
- plant injury at 62 g/ha ([2]; Triticum aestivum, post-emergence, 62 g ai/ha, scale 0 to 100 (0 no effect, 100 complete control), read-out: Wheat plant response rating): 0%
- plant injury at 125 g/ha ([2]; Triticum aestivum, post-emergence, 125 g ai/ha, scale 0 to 100 (0 no effect, 100 complete control)): 0%
- pest or weed control at 16 g/ha ([3]; Echinochloa crus-galli, post-emergence, 16 g ai/ha, scale 0 to 100): 5%
- pest or weed control at 31 g/ha ([3]; Echinochloa crus-galli, post-emergence, 31 g ai/ha, scale 0 to 100): 5%
- pest or weed control at 62 g/ha ([3]; Echinochloa crus-galli, post-emergence, 62 g ai/ha, scale 0 to 100 (0 no effect, 100 complete control)): 10%
- pest or weed control at 125 g/ha ([3]; Echinochloa crus-galli, post-emergence, 125 g ai/ha, scale 0 to 100 (0 no effect, 100 complete control)): 10%
- pest or weed control at 16 g/ha ([4]; Setaria faberi, post-emergence, 16 g ai/ha, scale 0 to 100): 10%
- pest or weed control at 31 g/ha ([4]; Setaria faberi, post-emergence, 31 g ai/ha, scale 0 to 100): 10%
- pest or weed control at 62 g/ha ([4]; Setaria faberi, post-emergence, 62 g ai/ha, scale 0 to 100 (0 no effect, 100 complete control)): 15%
- pest or weed control at 125 g/ha ([4]; Setaria faberi, post-emergence, 125 g ai/ha, scale 0 to 100 (0 no effect, 100 complete control)): 25%
- plant injury at 16 g/ha ([5]; Brassica napus, post-emergence, 16 g ai/ha, scale 0 to 100): 35%
- plant injury at 31 g/ha ([5]; Brassica napus, post-emergence, 31 g ai/ha, scale 0 to 100): 40%
- plant injury at 62 g/ha ([5]; Brassica napus, post-emergence, 62 g ai/ha, scale 0 to 100 (0 no effect, 100 complete control)): 55%
- plant injury at 125 g/ha ([5]; Brassica napus, post-emergence, 125 g ai/ha, scale 0 to 100 (0 no effect, 100 complete control)): 80%
- pest or weed control at 16 g/ha ([6]; Abutilon theophrasti, post-emergence, 16 g ai/ha, scale 0 to 100): 50%
- pest or weed control at 31 g/ha ([6]; Abutilon theophrasti, post-emergence, 31 g ai/ha, scale 0 to 100): 40%
- pest or weed control at 62 g/ha ([6]; Abutilon theophrasti, post-emergence, 62 g ai/ha, scale 0 to 100 (0 no effect, 100 complete control), read-out: Velvetleaf plant response rating): 55%
- pest or weed control at 125 g/ha ([6]; Abutilon theophrasti, post-emergence, 125 g ai/ha, scale 0 to 100 (0 no effect, 100 complete control)): 85%
- pest or weed control at 16 g/ha ([7]; Alopecurus myosuroides, post-emergence, 16 g ai/ha, scale 0 to 100): 0%
- pest or weed control at 31 g/ha ([7]; Alopecurus myosuroides, post-emergence, 31 g ai/ha, scale 0 to 100): 0%
- pest or weed control at 62 g/ha ([7]; Alopecurus myosuroides, post-emergence, 62 g ai/ha, scale 0 to 100 (0 no effect, 100 complete control)): 0%
- pest or weed control at 125 g/ha ([7]; Alopecurus myosuroides, post-emergence, 125 g ai/ha, scale 0 to 100 (0 no effect, 100 complete control)): 5%
